Measured values: patent US8722633B2, “Glycoside derivatives and uses thereof” (Novartis AG, priority 2011, dated 2014)

Columns and labels:
[1] = target: T1, human sodium glucose co-transporter 2 (Homo sapiens, UniProt P31639); assay: SGLT-2 assay: sodium-dependent 14C-AMG uptake in CHO-hSGLT2 or HEK-hSGLT2 cells; type: cell-based; conditions: n = 1-4, read-out: SGLT2 IC50 nM (n = 1-4)
T1 construct: expressed in transfected cells; host or cells: CHO-K1 (ATCC CCL-61) or HEK293 (ATCC CRL-1573), stably transfected with pZeoSV carrying the hSGLT2 cDNA
T1 sequence (P31639 1-672): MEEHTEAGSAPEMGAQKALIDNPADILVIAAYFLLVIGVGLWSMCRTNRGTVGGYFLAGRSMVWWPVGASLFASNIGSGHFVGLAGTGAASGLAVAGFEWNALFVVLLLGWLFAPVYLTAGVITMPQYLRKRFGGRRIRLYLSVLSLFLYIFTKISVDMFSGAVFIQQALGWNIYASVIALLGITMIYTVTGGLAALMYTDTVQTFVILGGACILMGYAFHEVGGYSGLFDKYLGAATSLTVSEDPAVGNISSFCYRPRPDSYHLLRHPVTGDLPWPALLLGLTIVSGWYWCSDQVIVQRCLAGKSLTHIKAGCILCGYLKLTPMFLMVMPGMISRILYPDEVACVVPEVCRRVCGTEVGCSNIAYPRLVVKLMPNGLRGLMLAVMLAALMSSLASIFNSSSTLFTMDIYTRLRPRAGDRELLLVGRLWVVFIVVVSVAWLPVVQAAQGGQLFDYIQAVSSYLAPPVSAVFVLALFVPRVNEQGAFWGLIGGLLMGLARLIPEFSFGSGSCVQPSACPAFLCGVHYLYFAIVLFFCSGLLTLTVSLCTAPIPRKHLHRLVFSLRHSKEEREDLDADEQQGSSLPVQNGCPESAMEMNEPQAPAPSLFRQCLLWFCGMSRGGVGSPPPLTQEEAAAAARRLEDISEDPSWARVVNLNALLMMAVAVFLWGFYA
Method: These cell lines transport ^14C-labelled alpha-methyl-glucopyranoside (^14C-AMG, Amersham) into the interior of the cell in sodium-dependent manner.
(§1) The SGLT-2 assay is carried out as follows: CHO-hSGLT2 cells are cultivated in Ham's F12 Medium (BioWhittaker) with 10% foetal calf serum and 250 μg/mL zeocin (Invitrogen), and HEK293-hSGLT2 cells are cultivated in DMEM medium with 10% foetal calf serum and 250 μg/mL zeocin (Invitrogen). The cells are detached from the culture flasks by washing twice with PBS and subsequently treating with trypsin/EDTA. After the addition of cell culture medium the cells are centrifuged, resuspended in culture medium and counted in a Casy cell counter. Then 40,000 cells per well are seeded into a white, 96-well plate coated with poly-D-lysine and incubated overnight at 37° C., 5% CO2. The cells are washed twice with 250 μl of assay buffer (Hanks Balanced Salt Solution, 137 mM NaCl, 5.4 mM KCl, 2.8 mM CaCl2, 1.2 mM MgSO4 and 10 mM HEPES (pH 7.4), 50 μg/mL of gentamycin). 250 μl of assay buffer and 5 μl of test compound are then added to each well and the plate is incubated for a further 15 minutes in the incubator. 5 μl of 10% DMSO are used as the negative control. The reaction is started by adding 5 μl of 14 C— AMG (0.05 μCi) to each well. After 2 hours' incubation at 37° C., 5% CO2, the cells are washed again with 250 μl of PBS […] and then lysed by the addition of 25 μl of 0.1 N NaOH (5 min. at 37° C.). 200 μl of MicroScint20 (Packard) are added to each well and incubation is continued for a further 20 min at 37° C. After this incubation the radioactivity of the ^14C-AMG absorbed is measured in a Topcount (Packard) using a ^14C scintillation program.

human SGLT1 = target: T2, human SGLT1 (Homo sapiens, UniProt P13866); assay: SGLT1 assay: analogous 14C-AMG uptake test with hSGLT1 cDNA expressed in CHO-K1 or HEK293 cells; type: cell-based; conditions: n = 1-4
T2 construct: the cDNA for hSGLTI (Genbank Ace. No. NM000343); expressed in transfected cells; host or cells: CHO-K1 or HEK293 cells expressing the hSGLT1 cDNA
T2 sequence (P13866 1-664): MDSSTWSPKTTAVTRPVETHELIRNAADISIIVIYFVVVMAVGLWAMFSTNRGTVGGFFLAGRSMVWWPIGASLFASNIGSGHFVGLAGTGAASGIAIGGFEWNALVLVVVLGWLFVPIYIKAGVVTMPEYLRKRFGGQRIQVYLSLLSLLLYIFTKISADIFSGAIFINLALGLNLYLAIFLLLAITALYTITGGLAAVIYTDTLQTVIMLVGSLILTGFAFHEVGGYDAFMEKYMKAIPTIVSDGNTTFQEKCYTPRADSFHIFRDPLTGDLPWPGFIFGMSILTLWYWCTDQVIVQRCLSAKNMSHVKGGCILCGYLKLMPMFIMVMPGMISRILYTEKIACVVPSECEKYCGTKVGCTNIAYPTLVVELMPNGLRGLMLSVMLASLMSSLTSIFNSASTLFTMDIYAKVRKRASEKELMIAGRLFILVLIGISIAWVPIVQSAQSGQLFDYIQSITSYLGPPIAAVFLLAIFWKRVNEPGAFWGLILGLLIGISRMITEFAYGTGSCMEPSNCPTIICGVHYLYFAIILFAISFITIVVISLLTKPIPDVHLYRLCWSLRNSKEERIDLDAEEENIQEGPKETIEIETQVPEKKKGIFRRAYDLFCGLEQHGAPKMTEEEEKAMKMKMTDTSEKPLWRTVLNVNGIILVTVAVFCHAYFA
Method: as §1
To determine the selectivity with respect to human SGLT1 an analogous test is set up in which the cDNA for hSGLTI (Genbank Ace. No. NM000343) instead of hSGLT2 cDNA is expressed in CHO-K1 or HEK293 cells.

| IC50 [1] | IC50 (human SGLT1) | Compound |
| --- | --- | --- |
| 0.29 nM | 0.55 nM | CSC1O[C@@H](c2ccc(C3CC3)c(Cc3ccc4c(c3)OCCO4)c2)[C@H](O)[C@@H](O)[C@@H]1O (stereo partly drawn) [Example 1, (2S,3R,4R,5S)-2-[4-cyclopropyl-3-(2,3-dihydro-benzo[1,4]dioxin-6-ylmethyl)-phenyl]-6-methylsulfanyl-tetrahydro-pyran-3,4,5-triol] |
| 0.36 nM |  | CCc1ccc([C@@H]2O[C@H](SC)[C@@H](O)[C@H](O)[C@H]2O)cc1Cc1ccc2c(c1)OCCO2 [Example 1-1, (2S,3R,4R,5S,6R)-2-[3-(2,3-Dihydro-benzo[1,4]dioxin-6-ylmethyl)-4-ethyl-phenyl]-6-methylsulfanyl-tetrahydropyran-3,4,5-triol] |
| 9.2 nM | 97 nM | CS(=O)(=O)[C@H]1O[C@@H](c2ccc(C3CC3)c(Cc3ccc4c(c3)OCCO4)c2)[C@H](O)[C@@H](O)[C@@H]1O [Example 2, (2S,3R,4R,5S)-2-[4-Cyclopropyl-3-(2,3-dihydro-benzo[1,4]dioxin-6-ylmethyl)-phenyl]-6-methanesulfonyl-tetrahydro-pyran-3,4,5-triol] |
| 1.45 nM | 195 nM | CCc1ccc([C@@H]2O[C@H](S(C)(=O)=O)[C@@H](O)[C@H](O)[C@H]2O)cc1Cc1ccc2c(c1)OCCO2 [Example 2-1, (2S,3R,4R,5S,6R)-2-[3-(2,3-Dihydro-benzo[1,4]dioxin-6-ylmethyl)-4-ethyl-phenyl]-6-methanesulfonyl-tetrahydropyran-3,4,5-triol] |
